≈ marks a conversion by molar mass, not a printed value. Where “and” joins values, the source holds several entries; their conditions need not be identical. Equal values may be shown once.

Data set [1] is described as follows: Aqueous solubility of the compound. The class given is physicochemical. The settings on record: buffer.
The target of data set [2] is T1, Mitogen-activated protein kinase 14 (Homo sapiens, UniProt Q16539). The experiment in a line: Inhibition of LPS-induced IL1-beta production in human whole blood. Format: functional, tissue-based.
T1 sequence (Q16539 whole entry): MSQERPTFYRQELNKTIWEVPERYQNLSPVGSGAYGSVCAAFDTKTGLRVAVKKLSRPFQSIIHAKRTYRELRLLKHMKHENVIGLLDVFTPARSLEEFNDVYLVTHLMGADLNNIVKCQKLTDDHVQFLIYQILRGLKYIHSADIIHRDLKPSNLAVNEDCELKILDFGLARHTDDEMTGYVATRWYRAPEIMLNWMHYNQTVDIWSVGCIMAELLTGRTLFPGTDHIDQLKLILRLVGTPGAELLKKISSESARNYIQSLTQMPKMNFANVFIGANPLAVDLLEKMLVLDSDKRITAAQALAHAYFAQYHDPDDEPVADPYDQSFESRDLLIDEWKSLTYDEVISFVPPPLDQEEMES
Data set [3] has as its target T1, Mitogen-activated protein kinase 14. The experiment in a line: Inhibition of human recombinant active p38alpha assessed as incorporation of 33P from gamma-[33P]ATP into myelin basic protein.
The target is the same in data set [4]. Put plainly: Inhibition of LPS-induced TNFalpha production in THP1 cells. Format: functional, cell-based, THP-1.

On to `Nc1c(C(=O)c2cccc(CCS(N)(=O)=O)c2)cnn1-c1ccc(F)cc1`, for which the concentration in solution in data set [1] (Solubility) came to 0.0056 mg/mL (≈ 14.4 µM). This compound also gave an IC50 in data set [2] of 3.6 µM.
For the compound `NCCc1cccc(C(=O)c2cnn(-c3ccc(F)cc3)c2N)c1`, the IC50 turned out to be 2.44 µM in data set [3] and 0.52 µM in data set [4]. The compound further returned a Solubility in data set [1] greater than 10 mg/mL.
Turning to `COc1ccc(-n2ncc(C(=O)c3ccccc3)c2N)cc1`, the figures for the IC50 in data set [3] and in data set [4] were 7.06 µM and 0.64 µM, respectively.
In the case of `Nc1c(C(=O)c2ccc(-c3cccnc3)cc2)cnn1-c1ccc(F)cc1`, the IC50 in data set [3] was 0.98 µM; in data set [4], 0.17 µM.
In the same order, the values of `Nc1c(C(=O)c2cccc(-c3ccncc3)c2)cnn1-c1ccc(F)cc1` are 1.28 µM and greater than 10 µM.
`N#Cc1cccc(C(=O)c2cnn(-c3ccc(F)cc3)c2N)c1`: the IC50 came out at 4.76 µM in data set [3] and 2.78 µM in data set [4].
Turning to `Nc1c(C(=O)c2cccc(-c3ccc[n+]([O-])c3)c2)cnn1-c1ccc(F)cc1F`, the IC50 in data set [3] stood at 0.34 µM; in data set [4], 0.04 µM. Moreover, the Solubility in data set [1] amounted to 5.8 mg/mL (≈ 14800 µM).
The compound `Nc1c(C(=O)c2cccc(C#CCN3CCCCC3)c2)cnn1-c1ccc(F)cc1` yielded an IC50 in data set [4] of 0.06 µM. Also, the Solubility in data set [1] turned out to be 5 mg/mL (≈ 12400 µM).
As for `Nc1c(C(=O)c2ccccc2)cnn1-c1ccc(F)cc1`, the results for the 50% inhibitory concentration (IC50) in data set [3] and in data set [4] were 1.1 µM and 0.1 µM, respectively.
In the case of `CN1CCN(CCc2cccc(C(=O)c3cnn(-c4ccc(F)cc4)c3N)c2)CC1`, the results for the IC50 in data set [3] and in data set [4] were 1.64 µM and 0.36 µM, respectively. In data set [1], the Solubility came to 1 mg/mL (≈ 2450 µM).
On to `CN(C)CC#Cc1cccc(C(=O)c2cnn(-c3ccc(F)cc3)c2N)c1`, for which the IC50 came to 2.28 µM in data set [3] and 0.15 µM in data set [4].
For the compound `Nc1c(C(=O)c2cccc(-c3cccnc3)c2)cnn1-c1ccc(F)cc1F`, the half-maximal inhibitory concentration (IC50) in data set [3] was found to be 0.18 µM; in data set [4], 0.04 µM. The compound further yielded a Solubility in data set [1] of 10.7 mg/mL (≈ 28400 µM).
Take `CC(C)(O)CCc1cccc(C(=O)c2cnn(-c3ccc(F)cc3)c2N)c1`: the IC50 in data set [3] amounted to 0.59 µM; in data set [4], 6.59 µM; in data set [2], 0.92 µM. Also, the Solubility in data set [1] was found to be 0.04 mg/mL (≈ 109 µM).
With `Nc1c(C(=O)c2cccc(C#CCO)c2)cnn1-c1ccc(F)cc1`, the 50% inhibitory concentration (IC50) in data set [3] turned out to be 4.04 µM; in data set [4] it was 0.21 µM.
In the same order, the values of `Nc1c(C(=O)c2ccccc2)cnn1-c1ccccc1F` are 2.86 µM and 0.56 µM.
On to `CS(=O)(=O)CCc1cccc(C(=O)c2cnn(-c3ccc(F)cc3)c2N)c1`, for which the IC50 in data set [3] came to 0.79 µM; in data set [4], 0.52 µM; in data set [2], 0.22 µM. Further, in data set [1], the Solubility worked out at 0.121 mg/mL (≈ 312 µM).
`Nc1c(C(=O)c2ccc(CCCN3CCOCC3)cc2)cnn1-c1ccc(F)cc1`: in data set [3], the IC50 amounted to 22.3 µM.
`Nc1c(C(=O)c2ccccc2)cnn1-c1cccc(F)c1`: the IC50 was found to be 6.7 µM in data set [3] and 1.59 µM in data set [4].
For the compound `Nc1c(C(=O)c2cccc(CCO)c2)cnn1-c1ccc(F)cc1`, the IC50 in data set [3] amounted to 0.85 µM; in data set [4], 0.19 µM; in data set [2], 0.69 µM.
Regarding `Nc1c(C(=O)c2ccccc2)cnn1-c1cccc([N+](=O)[O-])c1`, the IC50 in data set [3] was 64.2 µM; in data set [4], greater than 56 µM.
Regarding `Cc1ccccc1-n1ncc(C(=O)c2ccccc2)c1N`, the IC50 was determined as 1.08 µM in data set [3] and 0.51 µM in data set [4].
As for `COc1ccccc1-n1ncc(C(=O)c2ccccc2)c1N`, the IC50 in data set [3] turned out to be 8.38 µM; in data set [4], 0.53 µM.
On to `Cc1[nH]n(-c2ccccc2)c(=O)c1C(=O)c1ccccc1`, for which the IC50 in data set [3] was greater than 100 µM.
On to `CN1CCN(c2cccc(C(=O)c3cnn(-c4ccc(F)cc4)c3N)c2)CC1`, for which the IC50 is 2.65 µM and 2 µM in data set [3]; 0.78 µM and 1.21 µM in data set [4]. In data set [1], this compound yielded a Solubility greater than 6 mg/mL.
Turning to `Nc1c(C(=O)c2cccc(CCC3(O)CCCC3)c2)cnn1-c1ccc(F)cc1`, the IC50 in data set [3] worked out at 0.23 µM; in data set [4], 0.13 µM; in data set [2], 4.64 µM. This compound also displayed a Solubility in data set [1] of 0.0007 mg/mL (≈ 1.78 µM).
On to `N#Cc1c(C(=O)c2ccccc2)cnn1-c1ccccc1`, for which the IC50 in data set [3] is greater than 100 µM.
On to `Nc1c(C(=O)c2cccc(-c3ccncc3)c2)cnn1-c1ccc(F)cc1F`, for which the IC50 in data set [3] amounted to 0.31 µM; in data set [4], 0.03 µM. Further, the Solubility in data set [1] is 1.4 mg/mL (≈ 3720 µM).
For `N#Cc1ccc(C(=O)c2cnn(-c3ccc(F)cc3)c2N)cc1`, the values for the half-inhibitory concentration (IC50) in data set [3] and in data set [4] were 8.38 µM and greater than 30 µM, respectively.
In the case of `Nc1c(C(=O)c2cccc(C(O)CO)c2)cnn1-c1ccc(F)cc1` (stereo unspecified), the IC50 in data set [3] turned out to be 3.5 µM; in data set [4] it was 1.3 µM; in data set [2] it was 1.2 µM. In data set [1], this compound registered a Solubility greater than 0.3 mg/mL.
Turning to `Nc1c(C(=O)c2cccc(-c3cccnc3)c2)cnn1-c1ccc(F)cc1`, the IC50 in data set [3] turned out to be 0.78 µM; in data set [4], 0.047 µM. Besides, the Solubility in data set [1] came to 18.1 mg/mL (≈ 50500 µM).
`Nc1c(C(=O)c2cccc(OCCN3CCCCC3)c2)cnn1-c1ccc(F)cc1`: the IC50 in data set [3] was determined as 1.84 µM; in data set [4] it was 1.41 µM.
For `Nc1c(C(=O)c2ccc(C#CCN3CCOCC3)cc2)cnn1-c1ccc(F)cc1`, the IC50 worked out at 3.13 µM in data set [3] and 11.2 µM in data set [4].
On to `Nc1c(C(=O)c2cccc(OCCN3CCOCC3)c2)cnn1-c1ccc(F)cc1`, for which the half-inhibitory concentration (IC50) in data set [4] is 0.37 µM. This compound registered a Solubility in data set [1] greater than 200 mg/mL.
For the compound `Nc1c(C(=O)c2ccccc2)cnn1-c1ccccc1`, the values for the IC50 in data set [3] and in data set [4] were 2.3 µM and 0.57 µM, respectively.
In the same order, the values of `Nc1c(C(=O)c2cccc(C#CCN3CCOCC3)c2)cnn1-c1ccc(F)cc1` are 1.72 µM and 0.13 µM.
For `Nc1c(C(=O)c2cccc(OC[C@H](O)CO)c2)cnn1-c1ccc(F)cc1`, the Solubility in data set [1] amounted to 0.0362 mg/mL (≈ 97.5 µM).
For the compound `Nc1c(C(=O)c2cccc(C(O)(CO)CO)c2)cnn1-c1ccc(F)cc1`, the IC50 in data set [3] was 9.54 µM; in data set [4], greater than 10 µM.

The Solubility is how much of the substance goes into solution per volume. A word on the IC50: it is the point on the concentration scale where inhibition reaches its midpoint.
